{"source": "patent US9682985B2", "about": "“(Indazol-4-yl) hexahydropyrrolopyrrolones and methods of use” (AbbVie Inc., priority 2015, dated 2017)", "key": {"[1]": {"molecular_target": "T1, recombinant human Nav1.7 (Homo sapiens, UniProt Q15858)", "T1 construct": "expressed in transfected cells; host or cells: HEK293", "T1 sequence (Q15858 whole entry)": "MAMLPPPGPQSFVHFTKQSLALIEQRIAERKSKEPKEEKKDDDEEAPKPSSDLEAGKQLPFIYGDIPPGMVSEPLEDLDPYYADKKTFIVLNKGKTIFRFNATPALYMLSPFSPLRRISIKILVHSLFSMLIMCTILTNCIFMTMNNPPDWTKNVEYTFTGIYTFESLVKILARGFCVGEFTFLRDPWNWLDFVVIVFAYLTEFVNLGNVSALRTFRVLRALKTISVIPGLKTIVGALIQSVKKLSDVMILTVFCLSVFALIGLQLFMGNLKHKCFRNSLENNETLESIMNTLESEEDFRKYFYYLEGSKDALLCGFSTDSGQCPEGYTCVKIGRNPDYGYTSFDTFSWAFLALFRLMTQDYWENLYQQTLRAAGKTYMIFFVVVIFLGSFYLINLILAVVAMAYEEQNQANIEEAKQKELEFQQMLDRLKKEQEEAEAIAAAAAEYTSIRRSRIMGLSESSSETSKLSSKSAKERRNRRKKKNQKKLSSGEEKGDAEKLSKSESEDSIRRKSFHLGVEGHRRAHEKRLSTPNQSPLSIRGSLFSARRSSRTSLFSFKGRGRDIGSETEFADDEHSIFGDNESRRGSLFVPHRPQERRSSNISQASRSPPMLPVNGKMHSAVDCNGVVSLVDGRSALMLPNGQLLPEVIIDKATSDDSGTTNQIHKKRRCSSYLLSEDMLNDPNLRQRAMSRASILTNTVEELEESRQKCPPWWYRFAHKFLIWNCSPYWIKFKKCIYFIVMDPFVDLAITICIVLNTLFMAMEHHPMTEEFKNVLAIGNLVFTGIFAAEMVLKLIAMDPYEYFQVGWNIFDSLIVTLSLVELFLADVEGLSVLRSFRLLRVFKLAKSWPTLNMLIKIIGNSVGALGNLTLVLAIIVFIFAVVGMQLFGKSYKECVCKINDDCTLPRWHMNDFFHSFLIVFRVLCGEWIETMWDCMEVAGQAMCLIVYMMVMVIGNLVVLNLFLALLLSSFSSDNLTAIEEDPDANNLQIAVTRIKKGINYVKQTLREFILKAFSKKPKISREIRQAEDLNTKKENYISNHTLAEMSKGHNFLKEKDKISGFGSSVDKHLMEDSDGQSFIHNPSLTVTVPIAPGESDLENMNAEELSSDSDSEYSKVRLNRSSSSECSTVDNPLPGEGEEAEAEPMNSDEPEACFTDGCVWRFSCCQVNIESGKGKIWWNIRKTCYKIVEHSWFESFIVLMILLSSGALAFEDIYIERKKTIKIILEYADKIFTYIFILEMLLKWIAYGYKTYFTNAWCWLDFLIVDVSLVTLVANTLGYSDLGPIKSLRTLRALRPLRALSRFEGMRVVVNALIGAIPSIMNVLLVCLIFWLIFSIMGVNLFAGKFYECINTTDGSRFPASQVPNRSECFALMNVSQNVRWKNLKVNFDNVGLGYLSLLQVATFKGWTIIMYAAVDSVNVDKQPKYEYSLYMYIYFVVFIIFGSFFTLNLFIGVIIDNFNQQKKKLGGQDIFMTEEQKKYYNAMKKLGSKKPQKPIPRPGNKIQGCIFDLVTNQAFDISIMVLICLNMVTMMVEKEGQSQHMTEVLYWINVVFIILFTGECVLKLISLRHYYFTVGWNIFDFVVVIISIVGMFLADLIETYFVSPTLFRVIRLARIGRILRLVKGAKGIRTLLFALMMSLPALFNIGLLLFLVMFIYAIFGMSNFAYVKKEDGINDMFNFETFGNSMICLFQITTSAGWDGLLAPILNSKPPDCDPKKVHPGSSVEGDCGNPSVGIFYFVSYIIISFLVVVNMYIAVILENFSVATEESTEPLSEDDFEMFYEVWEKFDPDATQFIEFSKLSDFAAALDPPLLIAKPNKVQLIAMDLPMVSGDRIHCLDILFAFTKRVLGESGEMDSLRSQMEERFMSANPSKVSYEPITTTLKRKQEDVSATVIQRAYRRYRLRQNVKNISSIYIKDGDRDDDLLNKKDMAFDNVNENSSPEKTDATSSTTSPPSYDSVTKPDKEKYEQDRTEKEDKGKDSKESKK", "assay": "FRET-based membrane potential assay, Nav1.7", "assay_type": "cell-based", "conditions": "HEK293 cells expressing recombinant human Nav1.7; veratridine + scorpion venom depolarization"}, "[2]": {"molecular_target": "T2, hERG channel (Kv11.1) (Homo sapiens, UniProt Q12809)", "T2 construct": "W. January (Wisconsin Alumni Research Foundation); host or cells: HEK-293", "T2 sequence (Q12809 whole entry)": "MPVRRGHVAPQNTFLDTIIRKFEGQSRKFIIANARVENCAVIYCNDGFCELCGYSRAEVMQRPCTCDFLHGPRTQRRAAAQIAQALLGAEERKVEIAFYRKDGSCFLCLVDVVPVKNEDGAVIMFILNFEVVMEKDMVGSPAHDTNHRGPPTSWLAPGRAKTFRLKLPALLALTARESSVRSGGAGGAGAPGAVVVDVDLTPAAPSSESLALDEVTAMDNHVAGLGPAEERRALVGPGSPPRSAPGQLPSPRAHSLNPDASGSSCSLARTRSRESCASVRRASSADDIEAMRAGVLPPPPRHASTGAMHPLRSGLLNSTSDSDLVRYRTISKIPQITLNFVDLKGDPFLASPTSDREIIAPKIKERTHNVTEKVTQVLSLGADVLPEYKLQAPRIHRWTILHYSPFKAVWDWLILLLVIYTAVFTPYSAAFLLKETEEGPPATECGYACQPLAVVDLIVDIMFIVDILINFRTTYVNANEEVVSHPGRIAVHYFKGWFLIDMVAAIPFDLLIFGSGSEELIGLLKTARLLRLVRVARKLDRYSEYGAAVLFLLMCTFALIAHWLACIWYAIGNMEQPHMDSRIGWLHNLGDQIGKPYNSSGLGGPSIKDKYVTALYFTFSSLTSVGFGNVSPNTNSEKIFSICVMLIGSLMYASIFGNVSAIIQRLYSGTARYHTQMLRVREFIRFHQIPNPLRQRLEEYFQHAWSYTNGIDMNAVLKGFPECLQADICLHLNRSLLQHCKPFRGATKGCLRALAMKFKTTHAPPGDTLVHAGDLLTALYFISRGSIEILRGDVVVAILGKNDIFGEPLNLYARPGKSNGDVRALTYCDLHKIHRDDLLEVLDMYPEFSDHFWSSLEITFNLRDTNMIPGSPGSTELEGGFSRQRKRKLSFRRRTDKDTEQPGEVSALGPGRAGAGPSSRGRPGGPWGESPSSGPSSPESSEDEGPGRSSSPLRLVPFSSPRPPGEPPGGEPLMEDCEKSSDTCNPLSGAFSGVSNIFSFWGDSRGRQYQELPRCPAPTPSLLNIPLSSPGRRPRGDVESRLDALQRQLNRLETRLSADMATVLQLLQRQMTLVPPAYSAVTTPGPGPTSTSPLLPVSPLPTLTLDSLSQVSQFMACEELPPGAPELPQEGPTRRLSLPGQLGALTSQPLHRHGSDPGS", "assay": "hERG QPatch screening protocol (hERG current block)", "assay_type": "cell-based", "conditions": "HEK-293 cells stably transfected with hERG; tail current; room temperature", "method": "hERG QPatch Screening Protocol\nSolutions and Compound Plates:\nThe bath solution contained (in mM): 140 NaCl, 5 KCl, 1 MgCl2, 2 CaCl2, 5 glucose, 20 HEPES, pH=7.4. The internal solution contained (in mM): 125 K-aspartate, 20 KCl, 10 EGTA, 5 MgATP, 1 MgCl2, 5 HEPES, pH=7.3.\nCompound plates were prepared with an acoustic liquid handler (Echo® 550, Labcyte), using 384-well source plates and 96-well destination plates. Compounds were delivered to the destination plates as 300 nL spots in half-log increments (1, 3, 10 and 30 mM), dissolved in dimethyl sulfoxide. Plates were solvated with bath solution (300 μL) to final concentrations (1, 3, 10 and 30 μM; 0.1% dimethyl sulfoxide) and added to the QPatch workstation.\nCells and Cell Preparation:\nHuman embryonic kidney (HEK-293) cells, stably transfected with the hERG channel, were obtained from Dr. C. W. January (Wisconsin Alumni Research Foundation). Cells were initially maintained at 37° C. (5% CO2 atmosphere) in MEM supplemented media. Cells were cryo-preserved in 10% dimethyl sulfoxide, 90% fetal bovine serum at 10 M cells/mL. For electrophysiological studies, cells were thawed, resuspended in media at 1.0-1.5 M cells/mL and placed on the QPatch workstation.\nQPatch Electrophysiology Workstation and Experimental Protocol:\nCurrents were recorded using QPatch HT (Sophion), an automated planar patch-clamp system. The QPatch uses forty-eight amplifiers and a 48-chamber QPlate positioned directly on top of the headstage. To obtain high resistant seals, cells are added to each chamber and allowed to settle for 10 seconds. Negative pressure is then applied to promote cell delivery to the patch chip openings on the chamber bottom. After formation of GΩ seals, negative pressure ramps are applied to obtain intracellular access. Access resistance was initially optimized by additional pressure ramps to assure the intracellular access was adequate for voltage clamp experiments (targeted access resistance <10 MΩ). Whole-cell compensation and series resistance compensation were used at 60% (both predicted and corrected). Experiments using QPatch were conducted at room temperature.\nA single application of each concentration was applied to cells. During a five-minute wash-in period, a four-second depolarizing pulse to +20 mV, followed by a five-second repolarizing pulse to −50 mV was applied once every 15 seconds from a holding potential of −80 mV. Cells were exposed to four ascending concentrations of drug in half-log intervals.\nEvaluation of hERG Current Block:\nhERG tail current was measured as the difference in amplitude between a […] and the end of a five-second test pulse to −50 mV, preceded by a four-second pulse to +20 mV. The hERG IC50 values for compounds were determined from tail current analysis. The IC50 was calculated with a logistic fitting routine using the following equation: y=[(A1−A2)/(1+(x/IC50))^p]A2, where A1=initial×value, A2=final×value and p=power."}}, "note": "pIC50: −log10 of the molar value."}
{"smiles": "CC(C)(O)C(=O)N1C[C@H]2CN(c3cccc4c3cnn4-c3ccccc3F)C(=O)[C@H]2C1", "note": "[Example 41, (3aS,6aR)-2-[1-(2-fluorophenyl)-1H-indazol-4-yl]-5-(2-hydroxy-2-methylpropanoyl)hexahydropyrrolo[3,4-c]pyrrol-1(2H)-one]", "values": [{"measurement": "pIC50", "setting": "[1]", "result": 4.88}]}
{"smiles": "CC(C)(O)C(=O)N1CC[C@@H]2CN(c3cccc4c3cnn4-c3ccccc3F)C(=O)[C@@H]21", "note": "[Example 47, (3aR,6aR)-5-[1-(2-fluorophenyl)-1H-indazol-4-yl]-1-(2-hydroxy-2-methylpropanoyl)hexahydropyrrolo[3,4-b]pyrrol-6(1H)-one]", "values": [{"measurement": "pIC50", "setting": "[1]", "result": 5.51}]}
{"smiles": "CCS(=O)(=O)N1C[C@@H]2CN(c3cccc4c3cnn4-c3ccccc3F)C(=O)[C@@H]2C1", "note": "[Example 23, (3aS,6aS)-5-(ethylsulfonyl)-2-[1-(2-fluorophenyl)-1H-indazol-4-yl]hexahydropyrrolo[3,4-c]pyrrol-1(2H)-one]", "values": [{"measurement": "pIC50", "setting": "[1]", "result": 5.53}, {"measurement": "pIC50", "setting": "[2]", "result": "< 4.52"}]}
{"smiles": "O=C(C1CC(Cl)C1)N1C[C@H]2CN(c3cccc4c3cnn4-c3ccccc3F)C(=O)[C@H]2C1", "note": "(stereo partly drawn) [Example 43, (3aS,6aR)-5-[(3-chlorocyclobutyl)carbonyl]-2-[1-(2-fluorophenyl)-1H-indazol-4-yl]hexahydropyrrolo[3,4-c]pyrrol-1(2H)-one]", "values": [{"measurement": "pIC50", "setting": "[1]", "result": 5.52}, {"measurement": "pIC50", "setting": "[2]", "result": "< 4.52"}]}
{"smiles": "O=C1[C@H]2[C@H](CCN2C(=O)C2(O)CC2)CN1c1cccc2c1cnn2-c1ccccc1F", "note": "[Example 48, (3aR,6aR)-5-[1-(2-fluorophenyl)-1H-indazol-4-yl]-1-[(1-hydroxycyclopropyl)carbonyl]hexahydropyrrolo[3,4-b]pyrrol-6(1H)-one]", "values": [{"measurement": "pIC50", "setting": "[1]", "result": 6.23}]}
{"smiles": "O=C1[C@@H]2CN(S(=O)(=O)c3cccnc3)C[C@@H]2CN1c1cccc2c1cnn2-c1ccccc1F", "note": "[Example 27, (3aS,6aS)-2-[1-(2-fluorophenyl)-1H-indazol-4-yl]-5-(pyridin-3-ylsulfonyl)hexahydropyrrolo[3,4-c]pyrrol-1(2H)-one]", "values": [{"measurement": "pIC50", "setting": "[1]", "result": 5.44}]}
{"smiles": "C[C@@H](O)CC(=O)N1C[C@H]2CN(c3cccc4c3cnn4-c3ccccc3F)C(=O)[C@H]2C1", "note": "[Example 38, (3aS,6aR)-2-[1-(2-fluorophenyl)-1H-indazol-4-yl]-5-[(3R)-3-hydroxybutanoyl]hexahydropyrrolo[3,4-c]pyrrol-1(2H)-one]", "values": [{"measurement": "pIC50", "setting": "[1]", "result": 5.19}]}
{"smiles": "O=C(Cc1coc2ccccc12)N1CC2CN(c3cccc4c3cnn4-c3ccccc3F)C(=O)C2C1", "note": "[Example 25, (3aR,6aS)-5-(1-benzofuran-3-ylacetyl)-2-[1-(2-fluorophenyl)-1H-indazol-4-yl]hexahydropyrrolo[3,4-c]pyrrol-1(2H)-one]", "values": [{"measurement": "pIC50", "setting": "[1]", "result": 5.89}, {"measurement": "pIC50", "setting": "[2]", "result": 5.37}]}
{"smiles": "O=C1[C@H]2[C@H](CCN2C(=O)C2(O)CC2)CN1c1cccc2c1cnn2-c1ccccc1F", "note": "(relative stereo) [Example 5, rel-(3aR,6aR)-5-[1-(2-fluorophenyl)-1H-indazol-4-yl]-1-[(1-hydroxycyclopropyl)carbonyl]hexahydropyrrolo[3,4-b]pyrrol-6(1H)-one]", "values": [{"measurement": "pIC50", "setting": "[1]", "result": 5.77}, {"measurement": "pIC50", "setting": "[2]", "result": "< 4.52"}]}
{"smiles": "O=C(C1CC1(F)F)N1C[C@@H]2CN(c3cccc4c3cnn4-c3ccccc3F)C(=O)[C@@H]2C1", "note": "(stereo partly drawn) [Example 40, (3aR,6aS)-5-[(2,2-difluorocyclopropyl)carbonyl]-2-[1-(2-fluorophenyl)-1H-indazol-4-yl]hexahydropyrrolo[3,4-c]pyrrol-1(2H)-one]", "values": [{"measurement": "pIC50", "setting": "[1]", "result": 4.98}]}
{"smiles": "CS(=O)(=O)N1C[C@@H]2CN(c3cccc4c3cnn4-c3ccccc3F)C(=O)[C@@H]2C1", "note": "[Example 22, (3aS,6aS)-2-[1-(2-fluorophenyl)-1H-indazol-4-yl]-5-(methylsulfonyl)hexahydropyrrolo[3,4-c]pyrrol-1(2H)-one]", "values": [{"measurement": "pIC50", "setting": "[1]", "result": 5.17}]}
{"smiles": "CC(C)(O)C(=O)N1CC[C@@H]2CN(c3cccc4c3cnn4-c3ccccc3F)C(=O)[C@@H]21", "note": "(relative stereo) [Example 4, rel-(3aR,6aR)-5-[1-(2-fluorophenyl)-1H-indazol-4-yl]-1-(2-hydroxy-2-methylpropanoyl)hexahydropyrrolo[3,4-b]pyrrol-6(1H)-one]", "values": [{"measurement": "pIC50", "setting": "[1]", "result": 5.71}, {"measurement": "pIC50", "setting": "[2]", "result": "< 4.52"}]}
{"smiles": "CN(C)C(=O)N1C[C@H]2CN(c3cccc4c3cnn4-c3ccccc3F)C(=O)[C@H]2C1", "note": "(relative stereo) [Example 15, rel-(3aR,6aR)-5-[1-(2-fluorophenyl)-1H-indazol-4-yl]-N,N-dimethyl-4-oxohexahydropyrrolo[3,4-c]pyrrole-2(1H)-carboxamide]", "values": [{"measurement": "pIC50", "setting": "[1]", "result": 5.12}]}
{"smiles": "O=C1[C@H]2CN(C(=O)n3ccnc3)C[C@H]2CN1c1cccc2c1cnn2-c1ccccc1F", "note": "(relative stereo) [Example 12, rel-(3aR,6aR)-2-[1-(2-fluorophenyl)-1H-indazol-4-yl]-5-(1H-imidazol-1-ylcarbonyl)hexahydropyrrolo[3,4-c]pyrrol-1(2H)-one]", "values": [{"measurement": "pIC50", "setting": "[1]", "result": 5.51}, {"measurement": "pIC50", "setting": "[2]", "result": 4.86}]}
{"smiles": "O=C(NCc1cnco1)N1C[C@H]2CN(c3cccc4c3cnn4-c3ccccc3F)C(=O)[C@H]2C1", "note": "(relative stereo) [Example 13, rel-(3aR,6aR)-5-[1-(2-fluorophenyl)-1H-indazol-4-yl]-N-(1,3-oxazol-5-ylmethyl)-4-oxohexahydropyrrolo[3,4-c]pyrrole-2(1H)-carboxamide]", "values": [{"measurement": "pIC50", "setting": "[1]", "result": 4.96}]}
{"smiles": "CC(=O)N1C[C@@H]2CN(c3cccc4c3cnn4-c3ccccc3F)C(=O)[C@H]2C1", "note": "(relative stereo) [Example 17, rel-(3aR,6aR)-5-acetyl-2-[1-(2-fluorophenyl)-1H-indazol-4-yl]hexahydropyrrolo[3,4-c]pyrrol-1(2H)-one]", "values": [{"measurement": "pIC50", "setting": "[1]", "result": 5.05}]}
{"smiles": "O=C1[C@@H]2CN(S(=O)(=O)C3CC3)C[C@@H]2CN1c1cccc2c1cnn2-c1ccccc1F", "note": "[Example 28, (3aS,6aS)-5-(cyclopropylsulfonyl)-2-[1-(2-fluorophenyl)-1H-indazol-4-yl]hexahydropyrrolo[3,4-c]pyrrol-1(2H)-one]", "values": [{"measurement": "pIC50", "setting": "[1]", "result": 5.42}]}
{"smiles": "Cc1noc(C)c1CC(=O)N1C[C@@H]2CN(c3cccc4c3cnn4-c3ccccc3F)C(=O)[C@@H]2C1", "note": "[Example 33, (3aR,6aS)-5-[(3,5-dimethyl-1,2-oxazol-4-yl)acetyl]-2-[1-(2-fluorophenyl)-1H-indazol-4-yl]hexahydropyrrolo[3,4-c]pyrrol-1(2H)-one]", "values": [{"measurement": "pIC50", "setting": "[1]", "result": 4.87}]}
{"smiles": "C[C@@H](O)CC(=O)N1C[C@@H]2CN(c3cccc4c3cnn4-c3ccccc3F)C(=O)[C@@H]2C1", "note": "[Example 39, (3aR,6aS)-2-[1-(2-fluorophenyl)-1H-indazol-4-yl]-5-[(3R)-3-hydroxybutanoyl]hexahydropyrrolo[3,4-c]pyrrol-1(2H)-one]", "values": [{"measurement": "pIC50", "setting": "[1]", "result": 4.83}]}
{"smiles": "O=C1[C@@H]2CN(S(=O)(=O)CCC(F)(F)F)C[C@@H]2CN1c1cccc2c1cnn2-c1ccccc1F", "note": "[Example 26, (3aS,6aS)-2-[1-(2-fluorophenyl)-1H-indazol-4-yl]-5-[(3,3,3-trifluoropropyl)sulfonyl]hexahydropyrrolo[3,4-c]pyrrol-1(2H)-one]", "values": [{"measurement": "pIC50", "setting": "[1]", "result": 5.53}, {"measurement": "pIC50", "setting": "[2]", "result": "< 4.52"}]}
{"smiles": "C[C@H](O)CC(=O)N1C[C@@H]2CN(c3cccc4c3cnn4-c3ccccc3F)C(=O)[C@@H]2C1", "note": "[Example 36, (3aR,6aS)-2-[1-(2-fluorophenyl)-1H-indazol-4-yl]-5-[(3S)-3-hydroxybutanoyl]hexahydropyrrolo[3,4-c]pyrrol-1(2H)-one]", "values": [{"measurement": "pIC50", "setting": "[1]", "result": 4.94}]}
{"smiles": "O=C1[C@H]2CN(C(=O)C3(O)CC3)C[C@H]2CN1c1cccc2c1cnn2-c1ccccc1F", "note": "[Example 42, (3aS,6aR)-2-[1-(2-fluorophenyl)-1H-indazol-4-yl]-5-[(1-hydroxycyclopropyl)carbonyl]hexahydropyrrolo[3,4-c]pyrrol-1(2H)-one]", "values": [{"measurement": "pIC50", "setting": "[1]", "result": 5.05}]}
{"smiles": "CC(C)C(=O)N1C[C@@H]2CN(c3cccc4c3cnn4-c3ccccc3F)C(=O)[C@@H]2C1", "note": "[Example 20, (3aR,6aS)-2-[1-(2-fluorophenyl)-1H-indazol-4-yl]-5-isobutyrylhexahydropyrrolo[3,4-c]pyrrol-1(2H)-one]", "values": [{"measurement": "pIC50", "setting": "[1]", "result": 5.35}]}
{"smiles": "CC(C)(C)OC(=O)N1CCC(S(=O)(=O)N2CC3CN(c4cccc5c4cnn5-c4ccccc4F)C(=O)C3C2)CC1", "note": "[Example 30, tert-butyl 4-{[(3aS,6aS)-5-[1-(2-fluorophenyl)-1H-indazol-4-yl]-4-oxohexahydropyrrolo[3,4c]-pyrrol-2(1H)-yl]sulfonyl}piperidine-1-carboxylate]", "values": [{"measurement": "pIC50", "setting": "[1]", "result": 5.44}]}
